Paper PMC11768584 (Viruses, 2025)
Like-named read-outs stand apart in the source and are kept apart here.

Tests used:
rLCMV/GFP-P2A-NP [1] = experiment: organism not typed; type: cell-based, LCMV; conditions: for EC50: Hec50, read-out: EC50, LCMV multiplication (GFP expression)
LCMV vRNP = target: T1, LCMV vRNP (Lymphocytic choriomeningitis virus, UniProt P09992+P14240); type: cell-based
T1 construct: expressed in transfected cells; host or cells: HEK293T

in vitro [2] = conditions: African green monkey, CC50 (CellTiter 96 Aqueous One)
LASV vRNP = LASV vRNP (UniProt P13699+Q6GWS6); type: cell-based
[3] = test system: r3JUNVCandid GFP/GFP (r3Can-GFP); type: cell-based, JUNV
[4] = target: T2, LCMV GPC (GP2-mediated fusion) (Lymphocytic choriomeningitis virus, UniProt P09991); type: cell-based
T2 construct: expressed in transfected cells; host or cells: HEK293T
T2 sequence (P09991 266-498 limits assumed): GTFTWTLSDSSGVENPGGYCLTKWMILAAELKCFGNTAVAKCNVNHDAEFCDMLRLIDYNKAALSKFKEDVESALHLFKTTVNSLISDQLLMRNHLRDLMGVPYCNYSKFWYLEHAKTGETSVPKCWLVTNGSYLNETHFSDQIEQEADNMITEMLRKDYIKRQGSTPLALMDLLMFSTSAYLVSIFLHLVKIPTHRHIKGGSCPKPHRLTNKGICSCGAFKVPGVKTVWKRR
T2 sequence (P09991 59-265 limits assumed): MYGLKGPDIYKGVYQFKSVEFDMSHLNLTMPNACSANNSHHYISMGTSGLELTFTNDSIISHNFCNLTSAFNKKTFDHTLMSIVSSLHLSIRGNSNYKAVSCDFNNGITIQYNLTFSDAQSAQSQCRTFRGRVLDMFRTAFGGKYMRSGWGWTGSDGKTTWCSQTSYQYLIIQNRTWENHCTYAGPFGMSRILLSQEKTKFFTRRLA
T2 sequence (P09991 2-58 limits assumed): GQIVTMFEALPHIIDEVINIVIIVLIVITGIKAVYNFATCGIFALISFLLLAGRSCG

in vitro [5] = conditions: human
[6] = cited from earlier work
rLCMV/GFP-P2A-NP [7] = test system: rLCMV/GFP-P2A-NP; set-up: species or system LCMV
rLCMV/GFP-P2A-NP [8] = type: cell-based, LCMV
rLCMV/GFP-P2A-NP [9] = experiment: organism not typed; type: cell-based, LCMV; conditions: for EC50: A549, read-out: EC50, LCMV multiplication (GFP expression)
mammarenavirus = conditions: cited from earlier work

T1 sequence (P09992 whole entry): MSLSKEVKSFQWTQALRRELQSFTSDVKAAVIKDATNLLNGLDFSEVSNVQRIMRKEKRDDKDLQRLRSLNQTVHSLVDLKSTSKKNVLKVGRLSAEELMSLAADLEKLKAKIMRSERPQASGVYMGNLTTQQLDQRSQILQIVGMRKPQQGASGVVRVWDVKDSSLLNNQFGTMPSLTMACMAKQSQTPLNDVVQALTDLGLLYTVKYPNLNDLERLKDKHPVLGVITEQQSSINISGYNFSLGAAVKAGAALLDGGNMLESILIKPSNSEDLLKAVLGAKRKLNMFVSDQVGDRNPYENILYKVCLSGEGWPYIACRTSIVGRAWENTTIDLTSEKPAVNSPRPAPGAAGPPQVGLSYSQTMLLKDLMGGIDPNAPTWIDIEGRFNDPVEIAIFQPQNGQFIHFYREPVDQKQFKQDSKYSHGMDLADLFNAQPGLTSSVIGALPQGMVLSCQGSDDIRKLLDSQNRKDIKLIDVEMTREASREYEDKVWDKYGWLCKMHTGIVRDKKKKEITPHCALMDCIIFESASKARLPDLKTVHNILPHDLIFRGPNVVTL
T1 sequence (P14240 whole entry): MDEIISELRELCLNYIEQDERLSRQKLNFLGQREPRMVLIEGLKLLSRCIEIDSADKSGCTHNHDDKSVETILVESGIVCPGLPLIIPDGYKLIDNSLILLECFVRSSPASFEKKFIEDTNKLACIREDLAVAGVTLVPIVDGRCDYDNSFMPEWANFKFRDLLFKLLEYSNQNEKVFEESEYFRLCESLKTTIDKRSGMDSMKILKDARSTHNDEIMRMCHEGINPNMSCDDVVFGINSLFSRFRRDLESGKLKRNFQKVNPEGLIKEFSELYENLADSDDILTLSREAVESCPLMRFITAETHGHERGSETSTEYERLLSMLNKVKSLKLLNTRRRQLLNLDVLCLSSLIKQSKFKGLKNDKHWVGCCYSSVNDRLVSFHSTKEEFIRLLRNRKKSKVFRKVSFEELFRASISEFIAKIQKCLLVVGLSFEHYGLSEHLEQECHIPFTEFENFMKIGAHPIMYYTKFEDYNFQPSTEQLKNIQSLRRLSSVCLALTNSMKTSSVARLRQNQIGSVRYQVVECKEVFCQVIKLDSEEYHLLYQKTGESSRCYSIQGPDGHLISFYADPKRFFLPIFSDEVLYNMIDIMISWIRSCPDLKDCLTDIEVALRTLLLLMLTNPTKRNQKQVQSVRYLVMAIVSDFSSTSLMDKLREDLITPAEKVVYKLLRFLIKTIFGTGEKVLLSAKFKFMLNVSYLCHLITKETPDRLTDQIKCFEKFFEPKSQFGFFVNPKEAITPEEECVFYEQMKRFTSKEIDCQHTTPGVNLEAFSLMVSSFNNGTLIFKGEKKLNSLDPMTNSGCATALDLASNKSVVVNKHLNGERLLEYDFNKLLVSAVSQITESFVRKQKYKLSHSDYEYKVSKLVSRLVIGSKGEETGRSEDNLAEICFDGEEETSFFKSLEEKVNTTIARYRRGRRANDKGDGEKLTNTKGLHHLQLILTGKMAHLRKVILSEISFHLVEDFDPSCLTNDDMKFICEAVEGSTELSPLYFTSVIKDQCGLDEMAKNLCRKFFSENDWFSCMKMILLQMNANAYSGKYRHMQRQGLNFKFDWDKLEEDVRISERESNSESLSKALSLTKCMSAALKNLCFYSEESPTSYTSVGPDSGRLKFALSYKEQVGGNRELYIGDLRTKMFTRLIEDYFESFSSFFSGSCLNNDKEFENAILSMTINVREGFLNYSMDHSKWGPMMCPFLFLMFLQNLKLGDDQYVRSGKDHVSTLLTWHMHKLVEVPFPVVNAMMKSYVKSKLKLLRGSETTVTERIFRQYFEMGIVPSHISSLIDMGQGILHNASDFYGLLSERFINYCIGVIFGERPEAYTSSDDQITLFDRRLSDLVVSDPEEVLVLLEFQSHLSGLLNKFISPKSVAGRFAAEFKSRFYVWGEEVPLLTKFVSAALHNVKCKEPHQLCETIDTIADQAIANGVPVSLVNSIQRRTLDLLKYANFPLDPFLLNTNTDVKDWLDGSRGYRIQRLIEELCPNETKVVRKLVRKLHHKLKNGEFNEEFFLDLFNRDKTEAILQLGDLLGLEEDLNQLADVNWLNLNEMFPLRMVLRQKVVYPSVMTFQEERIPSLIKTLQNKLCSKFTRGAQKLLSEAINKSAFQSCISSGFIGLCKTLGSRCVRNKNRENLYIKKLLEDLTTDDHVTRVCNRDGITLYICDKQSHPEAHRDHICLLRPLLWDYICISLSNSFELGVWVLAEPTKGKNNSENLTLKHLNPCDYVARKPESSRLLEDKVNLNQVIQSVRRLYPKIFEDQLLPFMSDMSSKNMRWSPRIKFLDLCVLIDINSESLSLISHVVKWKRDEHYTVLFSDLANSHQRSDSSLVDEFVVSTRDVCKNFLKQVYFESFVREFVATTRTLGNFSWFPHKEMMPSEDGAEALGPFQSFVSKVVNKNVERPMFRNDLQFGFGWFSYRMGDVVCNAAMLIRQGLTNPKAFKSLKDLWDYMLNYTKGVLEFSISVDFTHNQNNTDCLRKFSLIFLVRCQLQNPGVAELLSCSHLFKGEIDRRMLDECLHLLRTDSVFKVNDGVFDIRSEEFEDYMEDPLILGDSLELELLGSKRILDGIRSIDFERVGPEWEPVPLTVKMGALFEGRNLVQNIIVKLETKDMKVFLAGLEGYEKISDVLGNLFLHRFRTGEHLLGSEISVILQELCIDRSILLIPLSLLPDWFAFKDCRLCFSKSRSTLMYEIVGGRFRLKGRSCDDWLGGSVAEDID

| Compound | Inhibitory activity on LCMV multiplication (in words) (rLCMV/GFP-P2A-NP [1]) | Inhibition of LCMV MG activity (in words) (LCMV vRNP) | Toxicity on Vero cells (in words) (Vero cells) | CC50 (in vitro [2]) [µM] | Reduction in LASV MG-directed ZsGreen expression levels vs vehicle control (LASV vRNP) | CC50 (in vitro [5]) [µM] | Anti-LCMV activity of calcium channel blockers (in words) (rLCMV/GFP-P2A-NP [9]) | EC50 (rLCMV/GFP-P2A-NP [1]) [µM] | further results |
| --- | --- | --- | --- | --- | --- | --- | --- | --- | --- |
| C[C@@H]1C[C@H]2[C@@H]3CCC4=CC(=O)C=C[C@]4(C)[C@@]3(F)[C@@H](O)C[C@]2(C)[C@@]1(O)C(=O)CO [DEX, dexamethasone] | very poor inhibitory activity | minimal inhibitory activities | minimal toxicity | 55.7 | ~ 28% |  |  |  |  |
| Fc1ccc(C(c2ccc(F)cc2)N2CCN(C/C=C/c3ccccc3)CC2)cc1 [FLN, Flunarizine] |  | strongest inhibitory effect |  | > 100 | ~ 50% | 74.3 |  |  | Reduction in r3Can-GFP (JUNV) virus peak titers vs VC [3]: > 1 log; GP2-mediated pH-dependent fusion (syncytium formation) [4]: inhibition of GP2-mediated fusion; Bound to plasma proteins [6]: More than 99%; Inhibition of LCMV MG vRNP-directed reporter gene (GFP) expression (LCMV vRNP): ~ 75%; Virucidal activity: effect on virion infectivity (rLCMV/GFP-P2A-NP [7]): did not significantly affect virion infectivity; Levels of viral (LCMV NP) RNA determined by RT-qPCR (rLCMV/GFP-P2A-NP [8]): reduced; Virus cell propagation (GFP imaging) (rLCMV/GFP-P2A-NP [8]): reduced virus cell propagation |
| NCC1(CC(=O)O)CCCCC1 [Gabapentin, gabapentin] |  |  |  |  |  | > 100 | did not exhibit significant anti-LCMV activity |  | EC50, LCMV multiplication (GFP expression) (rLCMV/GFP-P2A-NP [9]): >Flat |
| OC(c1cc(C(F)(F)F)nc2c(C(F)(F)F)cccc12)C1CCCCN1 (stereo not drawn) [MEF, mefloquine] |  | minimal inhibitory activities |  | 29.1 | 5% |  |  | 15.5 | selective index (SI) (rLCMV/GFP-P2A-NP [1]): 1.87; CC50 (Vero cells; African green monkey): 27.3 µM |
| [Cl][Ni][Cl] [Nickel Chloride, nickel chloride] |  |  |  |  |  |  | did not exhibit significant anti-LCMV activity |  | CC50 (A549 cells): > 100 µM |
| COC(=O)C1=C(C)NC(C)=C(C(=O)OC)C1c1ccccc1[N+](=O)[O-] [Nifidipine, nifedipine] |  |  |  |  |  |  | did not exhibit significant anti-LCMV activity |  | EC50 (rLCMV/GFP-P2A-NP [9]): > 100 µM |
| CN1CC(=O)N2[C@H](c3ccc4c(c3)OCO4)c3[nH]c4ccccc4c3C[C@@H]2C1=O [TAD, tadalafil] | very poor inhibitory activity | minimal inhibitory activities | minimal toxicity | > 100 | ~ 12% |  |  | > 100 |  |
| COc1ccc(CCN(C)CCCC(C#N)(c2ccc(OC)c(OC)c2)C(C)C)cc1OC (stereo not drawn) [Verapamil, verapamil] |  |  |  |  |  | > 100 | did not exhibit significant anti-LCMV activity |  | EC50 (rLCMV/GFP-P2A-NP [9]): > 100 µM |
| C=C1CC[C@H](O)C/C1=C/C=C1\CCC[C@]2(C)[C@@H]([C@H](C)/C=C/[C@H](C)C(C)C)CC[C@@H]12 [Vit D, ergocalciferol] | very poor inhibitory activity | minimal inhibitory activities | minimal toxicity | > 100 | ~ 18% |  |  | > 100 |  |
| Clc1ccc(Cn2c(CN3CCCC3)nc3ccccc32)cc1 [clemizole] |  |  |  |  |  |  |  |  | Anti-mammarenavirus activity (in words) (mammarenavirus): does not exhibit anti-mammarenavirus activity |
